ChEMBL document CHEMBL1201862, “PubChem BioAssay data set” (2004)
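48-hour exposure; five concentrations; linearly interpolated endpoints. GI50 marks 50% less growth.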 Calls of active or inactive are those of the source. Rule as the data show it: active = GI50 up to about 1.1 µM and inactive = higher.

How the values were obtained:
Assay in all cases: NCI-60 cell line screen, 48 h
SK-MEL-5 = system: SK-MEL-5
SF-268 = system: SF-268
HCT-116 = system: HCT-116
Malme-3M = system: Malme-3M
UO-31 = system: UO-31
HOP-62 = system: HOP-62
KM12 = system: KM12
MDA-MB-435 = system: MDA-MB-435
IGROV-1 = system: IGROV-1
SNB-19 = system: SNB-19
NCI-H226 = system: NCI-H226
DU-145 = system: DU-145
A549 = system: A549
T47D = system: T47D
K562 = system: K562
RXF 393 = system: RXF 393
UACC-257 = system: UACC-257
SN12C = system: SN12C
HT-29 = system: HT-29
PC-3 = system: PC-3
CAKI-1 = system: CAKI-1
SF-539 = system: SF-539
UACC-62 = system: UACC-62
TK-10 = system: TK-10
A498 = system: A498
MCF7 = system: MCF7
RPMI-8226 = system: RPMI-8226
M14 = system: M14
EKVX = system: EKVX
COLO 205 = system: COLO 205
U-251 = system: U-251
MDA-N = system: MDA-N
OVCAR-4 = system: OVCAR-4
SW-620 = system: SW-620
HL-60 = system: HL-60
SK-MEL-2 = system: SK-MEL-2
CCRF-CEM = system: CCRF-CEM
NCI-H460 = system: NCI-H460
LOX IMVI = system: LOX IMVI
SNB-75 = system: SNB-75
BT-549 = system: BT-549
NCI-H522 = system: NCI-H522
SF-295 = system: SF-295
Hs-578T = system: Hs-578T
HOP-92 = system: HOP-92
HCT-15 = system: HCT-15
OVCAR-5 = system: OVCAR-5
NCI/ADR-RES = system: NCI/ADR-RES
MOLT-4 = system: MOLT-4
OVCAR-8 = system: OVCAR-8
786-0 = system: 786-0
SK-OV-3 = system: SK-OV-3
OVCAR-3 = system: OVCAR-3
SK-MEL-28 = system: SK-MEL-28
MDA-MB-231 = system: MDA-MB-231
ACHN = system: ACHN
NCI-H23 = system: NCI-H23

With `O=C([O-])C[n+]1ccccc1.c1ccncc1` the GI50 (SK-MEL-5) was > 100 µM (inactive), the GI50 (SF-268) was > 100 µM (inactive) and the GI50 (HCT-116) was > 100 µM (inactive). The GI50 (Malme-3M) was > 100 µM (inactive), the GI50 (UO-31) was > 100 µM (inactive) and the GI50 (HOP-62) was > 100 µM (inactive). For the same compound, the GI50 (KM12) was > 100 µM (inactive), the GI50 (MDA-MB-435) was > 100 µM (inactive) and the GI50 (IGROV-1) was > 100 µM (inactive). For the same compound, the GI50 (SNB-19) was > 100 µM (inactive), the GI50 (NCI-H226) was > 100 µM (inactive) and the GI50 (DU-145) was > 100 µM (inactive). For the same compound, the GI50 (A549) was > 100 µM (inactive), the GI50 (T47D) was > 100 µM (inactive) and the GI50 (K562) was > 100 µM (inactive). For the same compound, the GI50 (RXF 393) was > 100 µM (inactive), the GI50 (UACC-257) was > 100 µM (inactive) and the GI50 (SN12C) was > 100 µM (inactive). For the same compound, the GI50 (HT-29) was > 100 µM (inactive), the GI50 (PC-3) was > 100 µM (inactive) and the GI50 (CAKI-1) was > 100 µM (inactive). For the same compound, the GI50 (SF-539) was > 100 µM (inactive), the GI50 (UACC-62) was > 100 µM (inactive) and the GI50 (TK-10) was > 100 µM (inactive). The GI50 (A498) was > 100 µM (inactive), the GI50 (MCF7) was > 100 µM (inactive) and the GI50 (RPMI-8226) was > 100 µM (inactive). The GI50 (M14) was > 100 µM (inactive), the GI50 (EKVX) was > 100 µM (inactive) and the GI50 (COLO 205) was > 100 µM (inactive). For the same compound, the GI50 (U-251) was > 100 µM (inactive), the GI50 (MDA-N) was > 100 µM (inactive) and the GI50 (OVCAR-4) was > 100 µM (inactive). The GI50 (SW-620) was > 100 µM (inactive), the GI50 (HL-60) was 97.1 µM (inactive) and the GI50 (SK-MEL-2) was > 100 µM (inactive). For the same compound, the GI50 (CCRF-CEM) was > 100 µM (inactive), the GI50 (NCI-H460) was > 100 µM (inactive) and the GI50 (LOX IMVI) was > 100 µM (inactive). The GI50 (SNB-75) was > 100 µM (inactive), the GI50 (BT-549) was > 100 µM (inactive) and the GI50 (NCI-H522) was > 100 µM (inactive). For the same compound, the GI50 (SF-295) was > 100 µM (inactive), the GI50 (Hs-578T) was > 100 µM (inactive) and the GI50 (HOP-92) was > 100 µM (inactive). For the same compound, the GI50 (HCT-15) was over 100 µM, the GI50 (OVCAR-5) was > 100 µM (inactive) and the GI50 (NCI/ADR-RES) was > 100 µM (inactive). The GI50 (MOLT-4) was 33.1 µM (inactive), the GI50 (OVCAR-8) was > 100 µM (inactive) and the GI50 (786-0) was > 100 µM (inactive). The GI50 (SK-OV-3) was > 100 µM (inactive), the GI50 (OVCAR-3) was > 100 µM (inactive) and the GI50 (SK-MEL-28) was > 100 µM (inactive). The GI50 (MDA-MB-231) was > 100 µM (inactive), the GI50 (ACHN) was > 100 µM (inactive) and the GI50 (NCI-H23) was > 100 µM (inactive).
